Test results published in PMC8147254, “Efflux at the Blood-Brain Barrier Reduces the Cerebral Exposure to Ochratoxin A, Ochratoxin α, Citrinin and Dihydrocitrinone” (Toxins, 2021).

Experiments:
[1] = tested on: PBCEC; type: cell-based, porcine; conditions: levels higher than 100 µM; data not shown
Procedure: In order to study the barrier integrity PBCEC were incubated with 1 µM OTA, OTα, CIT and DHCIT in the apical compartment (blood side) of Transwell® filter inserts for 48 h. The TEER values as well as the electrical capacitance (cCL) were monitored by cellular impedance spectroscopy (Figure 4A,B). As a negative control the permeability of […] was measured after 48 h. Sucrose is not transported by any cellular transport protein and represents a marker for an intact BBB.
For barrier integrity, TEER values were monitored using a cellZscope® cellular impedance spectrometer (nanoAnalytics, Münster, Germany). […]. The detailed protocols can be found in the Supplementary Materials. […]
6.1. Cellular impedance spectroscopy
To monitor the barrier integrity during all transfer studies, the transendothelial electrical resistance (TEER) was measured with a cellZscope® cellular impedance spectrometer (nanoAnalytics, Münster, Germany) using a module suitable for 24 Transwell® filter inserts. After the mycotoxins were added to the cell culture medium, TEER was analyzed until the end of the experiment (48 h). The waiting time after each run was set to 10 min, resulting in 60 scans per 48 h.
The results were normalized to the TEER values of the first impedance spectrum of each well. Data processing was performed using the cellZscope 1.3.4 software (nanoAnalytics, Münster, Germany).

[2] = tested on: PBCEC; conditions: 10 µM

SMILES | effect on PBCEC barrier integrity [1] | cellular viability (dehydrogenase activity) compared to the negative control [2]
CCCN(CCC)S(=O)(=O)c1ccc(C(=O)O)cc1 [probenecid, 4-(N,N-dipropylaminosulfonyl)benzoic acid, reference compound] | impaired the PBCEC barrier integrity | –
CC(=O)OC[C@]12C[C@H](OC(=O)CC(C)C)C(C)=C[C@H]1O[C@@H]1[C@H](O)[C@@H](OC(C)=O)[C@@]2(C)[C@]12CO2 [T-2 toxin, reference compound] | – | 2 ± 1%
